Measured values taken from PubChem BioAssay (NCI).
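Dose response: 5 concentrations. Exposure: 48 h. Format: 96-well plates. Endpoint: linear interpolation; highest concentration if not reached. TGI marks complete inhibition of growth.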

Columns and labels:
Assay in all cases: NCI anticancer screen, dose series, 48 h
[1] = system: UO-31 renal
[2] = system: COLO 205 colon
[3] = system: HT29 colon
[4] = system: SNB-19 CNS
[5] = system: MOLT-4 leukemia
[6] = system: ACHN renal
[7] = system: SF-539 CNS
[8] = system: HCT-116 colon
[9] = system: MALME-3M melanoma
[10] = system: NCI-H460 lung
[11] = system: SW-620 colon
[12] = system: SN12C renal
[13] = system: M19-MEL melanoma
[14] = system: IGROV1 ovarian
[15] = system: OVCAR-3 ovarian
[16] = system: DMS 273 small cell lung
[17] = system: 786-0 renal
[18] = system: K-562 leukemia
[19] = system: M14 melanoma
[20] = system: RXF 393 renal
[21] = system: RXF-631 renal
[22] = system: KM20L2 colon
[23] = system: NCI-H522 lung
[24] = system: HOP-62 NSCLC
[25] = system: NCI-H226 lung
[26] = system: DLD-1 colon
[27] = system: EKVX NSCLC
[28] = system: SF-268 CNS
[29] = system: LXFL 529 NSCLC
[30] = system: A498 renal
[31] = system: HL-60(TB) leukemia
[32] = system: SF-295 CNS
[33] = system: DMS 114 small cell lung
[34] = system: SNB-78 CNS
[35] = system: TK-10 renal
[36] = system: SNB-75 CNS
[37] = system: U251 CNS
[38] = system: OVCAR-5 ovarian
[39] = system: UACC-257 melanoma
[40] = system: HCT-15 colon
[41] = system: SK-MEL-28 melanoma
[42] = system: A549 NSCLC
[43] = system: NCI-H23 lung
[44] = system: HCC-2998 colon
[45] = system: SR leukemia
[46] = system: KM12 colon
[47] = system: SK-OV-3 ovarian
[48] = system: RPMI-8226 leukemia
[49] = system: UACC-62 melanoma
[50] = system: CCRF-CEM leukemia
[51] = system: OVCAR-8 ovarian
[52] = system: SK-MEL-2 melanoma
[53] = system: OVCAR-4 ovarian
[54] = system: HOP-18 NSCLC
[55] = system: SK-MEL-5 melanoma
[56] = system: MDA-MB-231 breast
[57] = system: BT-549 breast
[58] = system: CAKI-1 renal
[59] = system: T-47D breast
[60] = system: XF 498 CNS
[61] = system: MCF7 breast
[62] = system: MDA-MB-435
[63] = system: DU-145 prostate
[64] = system: LOX IMVI melanoma
[65] = system: PC-3 prostate
[66] = system: HS 578T breast
[67] = system: MDA-N
[68] = system: NCI/ADR-RES ovarian
[69] = system: HOP-92 NSCLC

O=C(CC1(O)C(=O)Nc2ccc([N+](=O)[O-])cc21)c1ccc2ccccc2c1 (stereo unspecified)
TGI [1]: > 100 µM | TGI [2]: > 100 µM | TGI [3]: > 100 µM | TGI [4]: > 100 µM | TGI [5]: > 100 µM | TGI [6]: > 100 µM | TGI [7]: > 100 µM | TGI [8]: > 100 µM | TGI [9]: > 100 µM | TGI [10]: > 100 µM | TGI [11]: > 100 µM | TGI [12]: > 100 µM | TGI [13]: > 100 µM | TGI [14]: > 100 µM | TGI [15]: > 100 µM | TGI [16]: > 100 µM | TGI [17]: > 100 µM | TGI [18]: > 100 µM | TGI [19]: > 100 µM | TGI [20]: > 100 µM | TGI [21]: > 100 µM | TGI [22]: > 100 µM | TGI [23]: > 100 µM | TGI [24]: > 100 µM | TGI [25]: > 100 µM | TGI [26]: > 100 µM | TGI [27]: > 100 µM | TGI [28]: > 100 µM | TGI [29]: > 100 µM | TGI [30]: > 100 µM | TGI [31]: > 100 µM | TGI [32]: > 100 µM | TGI [33]: > 100 µM | TGI [34]: > 100 µM | TGI [35]: > 100 µM | TGI [36]: > 100 µM | TGI [37]: > 100 µM | TGI [38]: > 100 µM | TGI [39]: > 100 µM | TGI [40]: > 100 µM | TGI [41]: > 100 µM | TGI [42]: > 100 µM | TGI [43]: > 100 µM | TGI [44]: > 100 µM | TGI [45]: > 100 µM | TGI [46]: > 100 µM | TGI [47]: > 100 µM | TGI [48]: > 100 µM | TGI [49]: > 100 µM | TGI [50]: > 100 µM | TGI [51]: > 100 µM | TGI [52]: > 100 µM | TGI [53]: > 100 µM

CC1OC(=O)C2CC3CCCCC3C(/C=C/C3CCCC(C)N3C)C12 (stereo unspecified)
TGI [1]: > 100 µM | TGI [2]: > 100 µM | TGI [54]: > 100 µM | TGI [3]: > 100 µM | TGI [4]: > 100 µM | TGI [55]: > 100 µM | TGI [5]: > 100 µM | TGI [6]: > 100 µM | TGI [7]: > 100 µM | TGI [8]: > 100 µM | TGI [56]: > 100 µM | TGI [9]: > 100 µM | TGI [57]: > 100 µM | TGI [58]: > 100 µM | TGI [10]: > 100 µM | TGI [11]: > 100 µM | TGI [12]: > 100 µM | TGI [13]: > 100 µM | TGI [14]: > 100 µM | TGI [15]: > 100 µM | TGI [59]: > 100 µM | TGI [16]: > 100 µM | TGI [17]: > 100 µM | TGI [18]: > 100 µM | TGI [19]: > 100 µM | TGI [60]: > 100 µM | TGI [20]: > 100 µM | TGI [61]: > 100 µM | TGI [22]: > 100 µM | TGI [23]: > 100 µM | TGI [24]: > 100 µM | TGI [25]: > 100 µM | TGI [62]: > 100 µM | TGI [26]: > 100 µM | TGI [63]: > 100 µM | TGI [27]: > 100 µM | TGI [28]: > 100 µM | TGI [64]: > 100 µM | TGI [29]: > 100 µM | TGI [30]: > 100 µM | TGI [31]: > 100 µM | TGI [32]: > 68.1 µM | TGI [33]: > 100 µM | TGI [34]: > 52.8 µM | TGI [35]: > 100 µM | TGI [65]: > 100 µM | TGI [36]: > 100 µM | TGI [37]: > 100 µM | TGI [38]: > 100 µM | TGI [39]: > 100 µM | TGI [40]: > 100 µM | TGI [41]: > 100 µM | TGI [42]: > 100 µM | TGI [43]: > 100 µM | TGI [44]: > 100 µM | TGI [45]: > 100 µM | TGI [66]: > 100 µM | TGI [46]: > 100 µM | TGI [67]: > 100 µM | TGI [47]: > 100 µM | TGI [48]: > 100 µM | TGI [68]: > 100 µM | TGI [69]: > 100 µM | TGI [49]: > 100 µM | TGI [50]: > 100 µM | TGI [51]: > 100 µM | TGI [52]: > 100 µM | TGI [53]: > 100 µM
